Reference: patent publication US20070276103A1, “Fluorinated Surfactants” (3M Innovative Properties Company, priority 2006, published 2007)
Like-named read-outs stand apart in the source and are kept apart here.

What was measured:
[1] = Determination of bio-accumulation: urinary clearance pharmacokinetic study in rats; settings: male Sprague Dawley rats, 73 micro Moles per kg, oral gavage; for Compound-related Effects: clinical signs of toxicity and gross necropsy at 96 hours post-dose; for % Recovery (96 h): recovery of compound in urine 96 h post-dose; for T ½: renal (urinary) elimination half-life, parent compound in urine by fluorine NMR, exponential least squares curve fitting
Method: (§1) The perfluorinated and partially fluorinated carboxylates were evaluated for urinary clearance using a pharmacokinetic study in rats. The goal was to measure the total amount of parent compound eliminated via urinary output and estimate the rate of elimination.
(§2) The study utilized male Sprague Dawley rats, 6 to 8 weeks of age, and approximately 200 to 250 g body weight at study onset. The test compounds of Table 2 were administered at a dose of 73 micro Moles per kg body weight in rats (N=3 animals per tested compound). All test compounds were prepared in sterile deionized water and given to rats via oral gavage. After test compound administration, the rats were housed individually in metabolism cages for urine collection: 0 to 6 hours, 6 to 24 hours, 24 to 48 hours and 72 to 96 hours. Animals were observed throughout the study for clinical signs of toxicity. Gross necropsy was performed at the termination of each study (96 hours post-dose) with sera and liver samples being retained from each animal.
(§3) The concentration of the parent compound or metabolites thereof were quantitatively measured via fluorine NMR on each urine sample for each animal at each time point based on internally added standards.
(§4) In Table 2, T1/2 is the time required for the amount of a particular substance in a biological system to be reduced to one half of its value by biological processes when the rate of removal is approximately exponential. In these examples the value of T1/2 is calculated by exponential least squares curve fitting (y=AeBX and T1/2=0.693/B) where y represents the concentration of analyte in urine and x represents time in hours.

[2] = rat, in vivo, po
Method: as §1, §2, §3, §4

Row | Compound-related Effects [2] | Structure (SMILES) | Compound-related Effects [1] | % Recovery (96 h) [1] [%] | T ½ [1] [days]
1 | – | N.O=C(O)C(F)(F)C(F)(F)OC(F)(F)C(F)(F)C(F)(F)C(F)(F)F [Example 1, C4F9—O—CF2—CF2—COONH4] | Hepatomegaly | 42 | 1.29
2 | Hepatomegaly | N.O=C(O)C(F)(F)C(F)(F)C(F)(F)C(F)(F)C(F)(F)OC(F)C(F)(F)F (centres unmarked) [Example 3, CF3—CFH—O—(CF2)5—COONH4] | – | – | –
3 | – | N.O=C(O)C(F)(F)C(F)(F)C(F)(F)C(F)(F)C(F)(F)C(F)(F)C(F)(F)F [Example C1, CF3(CF2)6COONH4] | Hepatomegaly | 6 | ~22.9
4 | Hepatomegaly | N.O=C(O)C(F)(F)OC(F)(F)C(F)(OC(F)(F)C(F)(F)C(F)(F)F)C(F)(F)F (centres unmarked) [Example C2, CF3CF2CF2OCF(CF3)CF2OCF2COONH4] | – | – | –
